{"source": "patent US6288110A", "about": "“Pharmaceutical compositions comprising disulfiram” (Yeda Research and Development Co Ltd., priority 1998, dated 2001)", "key": {"[1]": {"system": "neovascularization induced by bFGF", "assay": "Subcutaneous angiogenesis in nude mice (bFGF agarose bead), disulfiram per os", "assay_type": "in vivo, CD1 nude male mice", "description": "FIGS. 1A-1C show inhibition of neovascularization in nude mice by disulfiram (D). […] Bar is one mm.\nSpherical agarose beads of approximately 1 mm in diameter were formed from 4% low gelling temperature agarose (Sigma) in PBS containing b-FGF or HB-EGF as angiogenic agent. The candidate angiogenic agent (10 μg/bead) was warmed in sterile microtest tubes to 40° C. in a dry-bath for a few seconds. 10 μl of agarose solution (6% in saline, 45° C.) were then added to 5 μl of the angiogenic compound and beads were formed above ice using a 20 μl pipette tip. Beads were implanted subcutaneously 1 cm away from the incision-site as reported previously for multicellular spheroids (Abramovitch, 1995) in mice anesthetized with a single dose of 75 mg/kg ketamine+3 mg/kg xylazine (i.p.). Experiments were carried out for 4 days in CD1 nude male mice. Each day one ml of aqueous solutions with or without 0.1-0.25 mM (25-60 μg) disulfiram was introduced per os to the mice using a feeding needle. Treatment was for three days starting from the day of bead implantation until one day before termination. Experiments were done in quadruplicates and repeated three times.\nAgarose beads containing the angiogenic factor bFGF (10 μg/bead) were implanted subcutaneously into CD1 nude mice as described in section (d) of \"Materials and Methods\" above. […]"}, "[2]": {"system": "BSMC", "assay": "TUNEL assay for apoptosis, BSMC", "assay_type": "cell-based, bovine", "conditions": "1 μM, 6 hours", "description": "Cells were cultured on microscope slides for 48 hours in presence of growth media as described above, until reaching 40-50% confluency. Disulfiram was then added to the cells for 6 hours or for 20 hours in the case of BALB/MK keratinocytes, fixed with 4% paraformaldehyde and washed three times with PBS. Apoptosis was analyzed by the in situ TUNEL staining carried out as described (Wride, 1994). Briefly, microscope slides were incubated for 15 min in 2×SSC buffer at 60° C., washed in DDW and incubated with 20 μg/ml proteinase K (Boehringer Mannheim) for 15 min at room temperature. After a wash with DDW, endogenous peroxidases were inactivated by incubating the slides with 2% H2 O2 in PBST (PBS with 0.05% Tween 20) for 10 min at room temperature. Slides were then incubated in TdT buffer (Boehringer Mannheim) for 5 min at room temperature, and a reaction mixture containing 5×TdT buffer and 1 μl biotin-21-dUTP (Clontech, 1 mM stock) and 8 units of the TdT enzyme (Boehringer Mannheim) in total volume of 50 μl was subsequently added. The reactions were carried out at 37° C. for 1.5 hr in a humid chamber. The slides were washed in 2×SSC, DDW and finally with PBS and covered with 10% skim milk in PBST for 15 min. […]"}, "[3]": {"system": "bovine aortic vascular smooth muscle cells (BSMC)", "assay": "DNA synthesis (3H-thymidine incorporation) in BSMC", "assay_type": "cell-based", "description": "Bovine aortic vascular smooth muscle cells (BSMC) were cultured in low glucose DMEM (1 g/liter) supplemented with 10% FCS (HyClone, Logan, Utah) and GPS.\nBovine capillary endothelial cells (BCE) and bovine aortic BSMC were plated in 24-well plates (6000 cells per well) in 500 μl DMEM medium supplemented with 10% Colorado calf serum (CCS) (GIBCO, USA) and GPS. After 24 hours, medium was changed to starvation medium (2% CCS, 0.5% BSA, GPS) for 24 hours. ^3 H-methyl-thymidine (5 μCi/ml) was added for the last 6 hours. DNA synthesis assays were performed as described above, in triplicates. DNA synthesis assays in BALB/MK keratinocytes were performed as previously described (Marikovsky, 1995).-DNA synthesis assays were performed in triplicates.\nDisulfiram was prepared in 0.1 mM stock solutions in DMSO. […] Inhibition was calculated as percentage of DNA synthesis of control.\nTo determine whether disulfiram acts directly on endothelial cells rather than on accessory cells such as macrophages and mast cells that can be responsible for the development of an angiogenic response in vivo, the effect of the drug on the growth of BCE cells was examined in vitro as described in section (c) of \"Materials and Methods\" above. DNA synthesis in BCE cells was measured in presence of increasing concentrations of disulfiram incubated for 24 hours with the cells. […]"}}, "note": "Entries after “also recorded” stand apart in the source; their conditions may differ.", "data": [{"smiles": "CCN(CC)C(=S)SSC(=S)N(CC)CC", "note": "[disulfiram, Bis(diethylthiocarbamoyl) disulfide]", "values": [{"measurement": "inhibition of neovascularization induced by bFGF inside and around the bead", "setting": "[1]; 60 μg/mouse systemically, 4 days after implantation", "value": "inhibited almost completely"}, {"measurement": "angiogenesis around the beads containing bFGF", "setting": "[1]; 25-60 μg/mouse/day per os, 3 days (1 ml of 0.1-0.25 mM)", "value": "clearly inhibited"}, {"measurement": "apoptosis by TUNEL method", "setting": "[2]", "value": "not labeled; also recorded: did not induce"}, {"measurement": "maximal inhibitory activity (DNA synthesis)", "setting": "[3]; 0.5-1 μM disulfiram", "value": 80, "unit": "%"}, {"measurement": "inhibition at 1 µM", "setting": "[3]; Bos taurus, 1 μM, 4 hours of incubation", "value": 50, "unit": "%"}]}]}
